Experimental data published in patent US20260158111A1, “USE OF TGF IN THE PREVENTION VIRUS INFECTION OF THE RESPIRATORY TRACT” (FrieslandCampina Nederland B.V., priority 2021, published 2026).

Tested on: Detroit D562 cells
Test: Airway epithelial cells pretreated with component, then stimulated with viral infection proxy poly I:C; cytokine ELISA of supernatant
Assay type: cell-based
Conditions: Example 7; Galunisertib alone 100 nM
Method: Detroit […] cells (ATCC-CCL138) were cultured in a T75 flask (Corning cat. No. 430641) in minimum essential medium (MEM, Invitrogen Catalog No. 21090-022) with 1× non-essential amino acids (Invitrogen cat. No. 11140-035), 10 mM sodium pyruvate (Invitrogen cat. No. 11360-039), 2 mM glutamax (Invitrogen cat. No. 35050-038), 1000 U/ml antibiotics penicillin, 1000 μg/ml […] and 10% serum (Hyclone, GE healthcare Life Sciences, lot. No. RB35936), henceforth called 10% complete medium with serum (CMS). Cells were trypsinized when confluency of 80% or greater was achieved, using 3 ml of Trypsin-EDTA (Invitrogen, cat. No. 25200-056) and resuspended into 12 ml of 10% CMS. Cells were counted and seeded at 6*10^4 cells/ml in three 24-well tissue culture treated plate (Corning cat. No. 3527) with 1 ml per well. These were cultured for one week till confluent. […] All the components were calibrated on protein concentration and added on cells at the calculated total protein concertation of 1 mg/ml on dry matter. […] ELISA kits from R&D Systems (Biotechne) were used to quantify cytokines IL-8/CXCL8 (DY208), IL-6 (DY206), TNF-α (DY210) and IFN-λ1/3 (DY1598B) according to the manufacturer's guidelines. Absorbance was measured at 450 nm and corrected for at 570 nm using the Biorad iMark plate reader & Imark software version 6.2. Cytokines were quantified before and after the addition of poly I:C.

Cc1cccc(-c2nn3c(c2-c2ccnc4ccc(C(N)=O)cc24)CCC3)n1 [Galunisertib]
effect of Galunisertib alone on the cells: had no effect on the cells
